# pIC50: −log10 of the molar value. Read-outs that look alike come from different tables or passages of the source.
# Experiments:
# L-1210 leukemia cells [1] = assay: Bioassay of tumorigenicity of in vitro treated tumor cells in syngeneic hosts; assay type: in vivo; conditions: BDf1 mice surviving 45 days
# L1210 MTX = assay: MTX and cisplatin cross-resistance test, 24 hour exposure; assay type: cell-based
# L-1210 leukemia cells [2] = assay: Bioassay of tumorigenicity of in vitro treated tumor cells in syngeneic hosts; assay type: in vivo, BDf1 mice; conditions: for MEAN SURVIVAL TIME (MST) of recipients: L-1210, control 10
# Excerpt: Suspensions of untreated and tripeptide treated MJY-alpha mammary tumor, B-16 melanoma, and L-1210 leukemia cells were adjusted to a concentration of 1×10^7 cells/ml based on the initial tumor cell concentration before the tripeptide exposure. Tumor cells were inoculated into syngeneic hosts at a concentration of 1×10^6 cells in […]. Female BALB/c/Crgl recipients of MJY-alpha mammary tumor cells and male C57BL/6/Jx hosts receiving B16 melanoma cells were inoculated subcutaneously; BDf1 mice were given intraperitoneal injections of L-1210 cells. Subcutaneous tumors were measured along their long and short axes every 1 to 3 days; tumor size is reported as the product of the two measurements (mm^2). The examination periods for mice receiving L-1210, MJY-alpha and B-16 tumor grafts were 45, 80, and 85 days, respectively. All mice were autopsied at the time of death or sacrifice.
# [3] = system: MJY-alpha mammary tumor cell layers; assay: Tumor cell survival (trypan blue), continuous exposure; assay type: cell-based, Mouse; conditions: for Percent Tumor Cell Survival / % tumor cell survival / reduction of tumor cell survival: MJY-alpha; for Percent Tumor Cell Survival: treated 24 hr; for reduction of tumor cell survival: 10 microgram/ml
# MMTV proteins = assay: Intracellular MMTV polypeptides (immune precipitation, NaDodSO4-PAGE); assay type: cell-based, mouse; conditions: for activity at 15 µM: Mus musculus, control 100, read-out: Relative level of MMTV-associated radioactivity (%): Total MMTV Protein
# Method: Intracellular MMTV proteins were identified in monolayer cells after 24 or 48 hour exposure to 15 uM PTT.119. Cultures were labeled with 25 uCi/ml of (^3 H)-leucine for the first 24 hours and were then doubly labeled with (^35 S)-methionine when the spent media were replenished. The relative rates of MMTV polypeptide synthesis were determined using parallel cultures continuously-treated with PTT.119 and pulse labeled for 15 minutes with ^35 S-methionine. Following labeling, the cells were washed twice in cold 0.01M phosphate-buffered saline, pH 7.5, and a solution of protease inhibitors added to yield a final concentration of 1 uM pepstatin, 10 ug soybean trypsin inhibitor/ml, and 1 mM N-ethyl maleimide. Cells were then disrupted in 0.05M phosphate buffer containing 0.1M NaCl and 0.1% Triton X-100, pH 7.5 (Pi/NaCl/Triton). Cells were scraped from the substrate and lysis completed by passing the suspensions through a 27 gauge needle five times. Nuclei were removed by centrifugation at 600×g for 10 minutes at 4° C. and 100 ul aliquots of the supernatants mixed with 10 ul preimmune rabbit sera and 50 ul of 10% […] formalin-fixed and heat-killed.
# Following a 15 minute incubation at 26° C., the Staphlococcus aureus (Cowan strain) immunoabsorbent was removed by centrifugation at 10,000×g for 1 minute in a Beckman microfuge. Supernatants (100 ul) were sequentially incubated at 26° C. with 33 ul of rabbit anti-MMTV antisera for 25 minutes and 150 ul of 10% S. aureus for 15 minutes. S. aureus was then pelleted and the precipitate washed five times in Pi/NaCl/Triton. Samples were finally resuspended in 20 ul of 1% NaDodSO4 /2-mercaptoethanol, heated for 1 minute at 100° C. to release MMTV proteins, and centrifuged to remove S. aureus. Supernatants were then subjected to NaDodSO4 -PAGE. Samples were disrupted in 1% NaDodSO4 and 1% B-mercaptoethanol at 100° C. for 1 minute electrophoresed on 10-20% polyacrylamide gradient slab gels using a discontinuous buffer system. Electrophoresis of immune precipitates from cell lysates was carried out in a similar manner using 7.5-15% polyacrylamide gradients. Mr of MMTV-related polypeptides were determined by coelectrophoresis of [^14 C]-protein standards (Mr 30,000 to 50,000 Da; New England Nuclear). Radioactivity was determined and the levels associated with MMTV polypeptide peaks quantitated using a generalized curve-fit computer program.
# [4] = system: MJY-alpha mammary tumor cells; assay: PTT.119 induced resistance test, long-term low dose culture; assay type: cell-based
# C-type virus = assay: Monitoring of treated MJY-alpha cells for induction of C-type virus; assay type: cell-based; conditions: 0.5 to 48 hour pulse or 8 months culture in the tripeptide
# Excerpt: The possible multifocal action of this antitumor tripeptide was a concern during examination of this compound. Since virus particles obtained by induction are infectious and oncogenic, PTT.119-treated cells were monitored for the presence of C-type virus. […] In addition, no diminution of the inhibitory effect of PTT.119 or enhancement of B-type retrovirus production was observed under these conditions.
# Hairy cell leukemia = assay: Survival of fresh human leukemic cells, continuous exposure; assay type: cell-based
smiles,measurement,setting,value
"CCOC(=O)[C@H](CCSC)NC(=O)[C@H](Cc1cccc(N(CCCl)CCCl)c1)NC(=O)[C@@H](N)Cc1ccc(F)cc1.Cl [PTT.119, 3-(p-fluorophenyl)-L-alanyl-3-[m-bis(2-chloroethyl)aminophenyl]-L-alanyl-L-methionine ethyl ester hydrochloride]",protection of surviving hosts against second graft of 1000 untreated L-1210 cells,L-1210 leukemia cells [1],did not confer protection
same,T.C.D.100,"L1210 MTX; L1210 MTX, 24 hours exposure",3.75 µM
same,pIC50,"L1210 MTX; Mus musculus, L1210, 24 h, read-out: T.C.D.50",5.71
same,MEAN SURVIVAL TIME (MST) of recipients,"L-1210 leukemia cells [2]; 1 ug/ml, 15 min",10 days
same,MEAN SURVIVAL TIME (MST) of recipients,"L-1210 leukemia cells [2]; 1 ug/ml, 30 min",10 days
same,MEAN SURVIVAL TIME (MST) of recipients,"L-1210 leukemia cells [2]; 1 ug/ml, 60 min",11 days
same,MEAN SURVIVAL TIME (MST) of recipients,"L-1210 leukemia cells [2]; 1 ug/ml, 120 min",13 days
same,MEAN SURVIVAL TIME (MST) of recipients,"L-1210 leukemia cells [2]; 5 ug/ml, 15 min",13 days
same,MEAN SURVIVAL TIME (MST) of recipients,"L-1210 leukemia cells [2]; 5 ug/ml, 30 min",21 days
same,MEAN SURVIVAL TIME (MST) of recipients,"L-1210 leukemia cells [2]; 5 ug/ml, 60 min",32 days
same,MEAN SURVIVAL TIME (MST) of recipients,"L-1210 leukemia cells [2]; 10 ug/ml, 15 min",8 days
same,ILS (increased life span),L-1210 leukemia cells [2]; L-1210 cells treated with 5 ug for 30 min,110%
same,ILS (increased life span),L-1210 leukemia cells [2]; L-1210 cells treated with 5 ug for 60 min,220%
same,tumor growth in recipient mice,L-1210 leukemia cells [2]; L-1210 cells treated with 5 ug for 2 hr,No tumor growth
same,tumor growth in recipient mice,L-1210 leukemia cells [2]; L-1210 cells treated with 10 ug for 30 min or longer,No tumor growth
same,Percent Tumor Cell Survival,[3]; 1 ug/ml,54%
same,% tumor cell survival,"[3]; 5 ug/ml, 1 hr",100%
same,% tumor cell survival,"[3]; 5 ug/ml, 4 hr",100%
same,% tumor cell survival,"[3]; 5 ug/ml, 8 hr",100%
same,% tumor cell survival,"[3]; 5 ug/ml, 24 hr",53%
same,Percent Tumor Cell Survival,[3]; 5 ug/ml,41%
same,% tumor cell survival,"[3]; 10 ug/ml, 1 hr",100%
same,% tumor cell survival,"[3]; 10 ug/ml, 4 hr",100%
same,% tumor cell survival,"[3]; 10 ug/ml, 8 hr",100%
same,% tumor cell survival,"[3]; 10 ug/ml, 24 hr",53%
same,Percent Tumor Cell Survival,[3]; 10 ug/ml,36%
same,% tumor cell survival,"[3]; 25 ug/ml, 1 hr",100%
same,% tumor cell survival,"[3]; 25 ug/ml, 4 hr",100%
same,% tumor cell survival,"[3]; 25 ug/ml, 8 hr",98%
same,% tumor cell survival,"[3]; 25 ug/ml, 24 hr",25%
same,Percent Tumor Cell Survival,[3]; 25 ug/ml,27%
same,% tumor cell survival,"[3]; 50 ug/ml, 1 hr",98%
same,% tumor cell survival,"[3]; 50 ug/ml, 4 hr",87%
same,% tumor cell survival,"[3]; 50 ug/ml, 8 hr",62%
same,% tumor cell survival,"[3]; 50 ug/ml, 24 hr",19%
same,Percent Tumor Cell Survival,[3]; 50 ug/ml,20%
same,reduction of tumor cell survival,[3]; another 24 hours,25%
same,reduction of tumor cell survival,[3]; zero to 24 hours,8%
same,decrease in mammary tumor cell survival,"[3]; continuous 24 hr exposure, all concentrations tested (0.1 to 50 ug/ml)",46-80%
same,levels of radiolabeled MMTV polypeptides higher than in parallel controls,MMTV proteins; 15 min pulse labelling at end of 24 and 48 hour treatment,1.5 fold
same,activity at 15 µM,"MMTV proteins; 24 hr, 15 min pulse labelling",181%
same,activity at 15 µM,"MMTV proteins; 48 hr, 15 min pulse labelling",154%
same,activity at 15 µM,"MMTV proteins; 48 hr, 24 hr labeling",125%
same,activity at 15 µM,"MMTV proteins; 24 h, 24 hr, 24 hr labeling",128%
same,survival of monolayers in continuous treatment,[4]; 15 uM,did not survive beyond the second passage
same,dose response curves of treated lines vs previously untreated MJY-alpha cells,"[4]; alpha-0.15, alpha-1.5, alpha-7.5, 8 months, 24 h challenge with 1.5-75 uM",No alteration
same,endogenous (C-type) virus production,C-type virus,no detection of any endogenous virus production
same,% tumor cell survival,"Hairy cell leukemia; 5 ug/ml, 1 hr",100%
same,% tumor cell survival,"Hairy cell leukemia; 5 ug/ml, 4 hr",80%
same,% tumor cell survival,"Hairy cell leukemia; 5 ug/ml, 24 hr",34%
same,% tumor cell survival,"Hairy cell leukemia; 10 ug/ml, 1 hr",100%
same,% tumor cell survival,"Hairy cell leukemia; 10 ug/ml, 4 hr",71%
same,% tumor cell survival,"Hairy cell leukemia; 10 ug/ml, 24 hr",81%
same,% tumor cell survival,"Hairy cell leukemia; 25 ug/ml, 1 hr",92%
same,% tumor cell survival,"Hairy cell leukemia; 25 ug/ml, 4 hr",71%
same,% tumor cell survival,"Hairy cell leukemia; 25 ug/ml, 24 hr",12%
same,% tumor cell survival,"Hairy cell leukemia; 50 ug/ml, 1 hr",37%
same,% tumor cell survival,"Hairy cell leukemia; 50 ug/ml, 4 hr",21%
same,% tumor cell survival,"Hairy cell leukemia; 50 ug/ml, 24 hr",7%

# Reference: patent publication US4740501A (priority 1985, dated 1988)
